For assay [1], the system named is mouse mixed lymphocyte reaction. Put plainly: Murine mixed lymphocyte reaction. To be noted: n=3. The assay is classed as cell-based.
The target of another assay is T1, mouse Kv3.1 (Mus musculus, UniProt P15388).
T1 construct: expressed in transfected cells; host or cells: L929 cells
Put plainly: Patch-clamp of heterologous mouse Kv3.1 expressed in L929 cells. The assay is classed as cell-based. The procedure:
(§1) Patch pipettes, pulled from glass capillaries (inner diameter 1.5 mm, Kimble products) with a horizontal puller (Sutter instruments, Modell P-97), were fire-polished, and had resistances between 2 and 4 MOhm. Patch-clamp experiments were performed in the tight-seal whole-cell configuration at room temperature (22-24° C.). High-resolution current recordings were acquired by a computer-based patch-clamp amplifier system (EPC-9, HEKA). Immediately following establishment of the whole-cell configuration, every two seconds voltage ramps of 50 ms duration spanning the voltage range of −100 to +100 mV for Jurkat T-cells and −150 to +150 mV for HEK293 were delivered from a holding potential (Vh) of −70 mV for Jurkats and 0 mV for HEK293 cells over a period of 300-600 s. […] Capacitive currents and series resistance were determined and corrected before each voltage ramp using the automatic capacitance compensation of the EPC-9. […] Kv1.3 currents in Jurkat T-cells were measured at +80 mV. Heterologously expressed Kv1.1, Kv1.2, Kv1.3, Kv1.5 and Kv3.1 were assessed at +80 mV except in Figure S7, where currents were additionally measured at the more physiological voltage of 0 mV. CRAC currents in HEK293 cells were assessed at −80 mV. […]

The target in another assay is T2, Kv1.3 (Homo sapiens, UniProt P22001).
T2 construct: endogenous in cells; host or cells: Jurkat T-cells
Put plainly: Patch-clamp of Kv1.3 currents in Jurkat T-cells. The assay is classed as cell-based. The protocol:
as §1

Assay [2] concerns calcium oscillation in Jurkat T-cells. Put plainly: Calcium oscillation in Jurkat T-cells (10 nM TG). In kind it is cell-based, human. As to conditions: for cells with elongated calcium oscillation period: 10 nM TG, Jurkat T-cells. The protocol: JurkaT-cells were attached to L-lysine-coated glass dishes (MatTek). Cells were loaded with fura-2-AM (Invitrogen_F-1201) for 45 min before they were washed sequentially with growth medium and Ca^2+-free HBSS. Fluorescence excitation wavelengths were set at 350 and 380 nm, respectively, on a Zeiss Axiovert 200M microscope while emission wavelength was set at 510 nm. Changes in intracellular calcium concentrations were determined by fluorescence intensity ratio ([…]/F380).

A further assay has as its target T3, human Kv1.5 (Homo sapiens, UniProt P22460).
T3 construct: expressed in transfected cells; host or cells: MEL cells
Put plainly: Patch-clamp of heterologous human Kv1.5 expressed in MEL cells. In kind it is cell-based. The procedure:
as §1

A further assay addresses T4, mouse Kv1.3 (Mus musculus, UniProt P16390).
T4 construct: expressed in transfected cells; host or cells: L929 cells
Put plainly: Patch-clamp of heterologous mouse Kv1.3 expressed in L929 cells. In kind it is cell-based. The procedure: as §1

Assay [3] concerns graft versus host disease. As to conditions: open label study; cited from earlier work.
Assay [4] has as its system IL-2 production in Jurkat T-cells. Put plainly: IL-2 secreted from stimulated Jurkat T-cells (ELISA). The assay is classed as cell-based. As to conditions: Homo sapiens; PMA/thapsigargin-stimulated Jurkat T-cells, FIG. 1B, n=6. The procedure:
Jurkat E6.1 T-cells (1×10^5 in 180 μl) were seeded into 96-well plates. Cells in each well were treated with different concentrations of clofazimine for 1 h before 1 μM ionomycin and 40 nM PMA were added. The incubation was continued for 2 days. The plates were centrifuged at 1,200×g for 5 min, and the supernatant from each well was collected followed by ELISA detection of IL-2. The primary antibody, biotinylated secondary antibody and HRP conjugated avidin were purchase from BD/Pharmingen.

A further assay has as its system mouse primary T-cells. Put plainly: IL-2 production from anti-CD3/anti-CD28-stimulated mouse primary T-cells. The assay is classed as cell-based. As to conditions: n=3.
Assay [5] deals with T5, calcineurin-NFATc2 interaction (Homo sapiens, UniProt P16298+Q13469, H160N).
T5 construct: calcineurinA (1-400, H160N) and NFATc2 (1-415) in Jurkat T-cells; expressed in transfected cells; host or cells: Jurkat T-cells
Put plainly: Mammalian two-hybrid assay of calcineurin and NFATc2 in Jurkat T-cells. In kind it is cell-based.

In assay [6] the test system is endogenous NFATc2 dephosphorylation. Put plainly: Dephosphorylation of endogenous NFATc2 in Jurkat T-cells (Western blot). In kind it is cell-based, human. As to conditions: ionomycin treatment. The procedure: Jurkat T-cells were pretreated with indicated compounds for 1 h before 3 μM (final concentration) ionomycin was added. Cells were harvested after 30 min and lysed in a lysis buffer [40 mM Tris (pH 7.8), 1% NP-40, 10 mM EDTA, 60 mM […] and common protease inhibitors] by sonication. NFATc2 was resolved by 8% SDS-PAGE followed by Western blot analysis using anti-NFAT antibodies (Santa-cruz Sc-7296, 1:100 dilution).

For assay [7], the system named is NF-κB luciferase reporter. Put plainly: NF-κB luciferase reporter assay in Jurkat T-cells. In kind it is cell-based, human. To be noted: FIG. 1C.

Consider one compound from patent US8669257B2, “Phenazine derivatives and uses thereof as potassium channel modulators” (The Johns Hopkins University, priority 2007, dated 2014).

“Also recorded” adds a separate entry of the source. Like-named read-outs stand apart in the source and are kept apart here.

T4 sequence (P16390 whole entry): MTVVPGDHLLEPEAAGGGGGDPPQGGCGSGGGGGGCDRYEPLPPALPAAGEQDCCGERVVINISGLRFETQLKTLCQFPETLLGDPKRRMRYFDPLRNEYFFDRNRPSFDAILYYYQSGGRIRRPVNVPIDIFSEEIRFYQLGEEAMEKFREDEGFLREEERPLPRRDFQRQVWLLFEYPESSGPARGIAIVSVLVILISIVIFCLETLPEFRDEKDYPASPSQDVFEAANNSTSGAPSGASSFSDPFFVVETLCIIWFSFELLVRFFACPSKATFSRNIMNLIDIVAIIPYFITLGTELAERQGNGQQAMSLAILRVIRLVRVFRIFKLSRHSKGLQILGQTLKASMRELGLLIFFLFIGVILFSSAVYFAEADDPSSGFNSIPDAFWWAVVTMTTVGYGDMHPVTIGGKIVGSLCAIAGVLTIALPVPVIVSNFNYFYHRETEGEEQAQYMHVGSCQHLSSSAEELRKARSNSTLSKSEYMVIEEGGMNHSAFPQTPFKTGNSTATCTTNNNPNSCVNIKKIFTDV
T1 sequence (P15388 whole entry): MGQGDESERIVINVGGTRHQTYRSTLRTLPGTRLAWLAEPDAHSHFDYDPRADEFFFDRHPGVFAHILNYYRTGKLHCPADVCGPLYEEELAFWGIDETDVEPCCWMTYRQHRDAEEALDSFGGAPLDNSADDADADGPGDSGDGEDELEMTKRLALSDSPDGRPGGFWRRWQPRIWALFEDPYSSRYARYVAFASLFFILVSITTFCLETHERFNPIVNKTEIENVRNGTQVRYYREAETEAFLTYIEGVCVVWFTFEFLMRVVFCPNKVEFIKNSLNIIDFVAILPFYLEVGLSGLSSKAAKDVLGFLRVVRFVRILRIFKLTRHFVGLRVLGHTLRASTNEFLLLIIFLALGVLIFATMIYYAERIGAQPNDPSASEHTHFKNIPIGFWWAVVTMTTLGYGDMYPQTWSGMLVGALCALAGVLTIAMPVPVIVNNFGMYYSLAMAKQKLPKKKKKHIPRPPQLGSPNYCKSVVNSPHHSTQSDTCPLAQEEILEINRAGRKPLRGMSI
T5 sequence (Q13469 1-415): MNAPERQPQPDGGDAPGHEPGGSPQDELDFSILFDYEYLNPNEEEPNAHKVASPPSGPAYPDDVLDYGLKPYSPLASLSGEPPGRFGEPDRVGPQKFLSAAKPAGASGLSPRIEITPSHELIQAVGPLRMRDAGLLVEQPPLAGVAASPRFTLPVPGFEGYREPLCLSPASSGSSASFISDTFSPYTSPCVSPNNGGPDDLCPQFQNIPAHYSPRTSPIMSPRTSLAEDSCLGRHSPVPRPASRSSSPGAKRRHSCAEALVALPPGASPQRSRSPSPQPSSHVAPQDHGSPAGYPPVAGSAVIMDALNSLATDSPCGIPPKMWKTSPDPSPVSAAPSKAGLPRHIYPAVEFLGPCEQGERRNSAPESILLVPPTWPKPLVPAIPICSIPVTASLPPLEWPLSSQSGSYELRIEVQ
T2 sequence (P22001 whole entry): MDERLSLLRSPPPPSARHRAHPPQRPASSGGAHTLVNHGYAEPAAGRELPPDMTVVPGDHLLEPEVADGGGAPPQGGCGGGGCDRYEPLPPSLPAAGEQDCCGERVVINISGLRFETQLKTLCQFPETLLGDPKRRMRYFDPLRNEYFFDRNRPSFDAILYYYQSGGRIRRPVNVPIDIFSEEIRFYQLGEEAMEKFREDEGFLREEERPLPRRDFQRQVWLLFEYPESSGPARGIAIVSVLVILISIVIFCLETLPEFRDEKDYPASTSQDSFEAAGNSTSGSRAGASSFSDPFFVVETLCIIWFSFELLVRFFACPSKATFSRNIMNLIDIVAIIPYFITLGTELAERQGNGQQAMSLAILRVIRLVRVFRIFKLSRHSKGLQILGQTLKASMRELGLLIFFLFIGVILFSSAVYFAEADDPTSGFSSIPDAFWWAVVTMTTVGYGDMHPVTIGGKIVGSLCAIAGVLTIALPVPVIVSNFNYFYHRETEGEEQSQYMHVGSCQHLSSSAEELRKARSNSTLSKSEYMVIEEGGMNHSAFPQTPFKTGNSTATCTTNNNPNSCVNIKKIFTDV
T3 sequence (P22460 whole entry): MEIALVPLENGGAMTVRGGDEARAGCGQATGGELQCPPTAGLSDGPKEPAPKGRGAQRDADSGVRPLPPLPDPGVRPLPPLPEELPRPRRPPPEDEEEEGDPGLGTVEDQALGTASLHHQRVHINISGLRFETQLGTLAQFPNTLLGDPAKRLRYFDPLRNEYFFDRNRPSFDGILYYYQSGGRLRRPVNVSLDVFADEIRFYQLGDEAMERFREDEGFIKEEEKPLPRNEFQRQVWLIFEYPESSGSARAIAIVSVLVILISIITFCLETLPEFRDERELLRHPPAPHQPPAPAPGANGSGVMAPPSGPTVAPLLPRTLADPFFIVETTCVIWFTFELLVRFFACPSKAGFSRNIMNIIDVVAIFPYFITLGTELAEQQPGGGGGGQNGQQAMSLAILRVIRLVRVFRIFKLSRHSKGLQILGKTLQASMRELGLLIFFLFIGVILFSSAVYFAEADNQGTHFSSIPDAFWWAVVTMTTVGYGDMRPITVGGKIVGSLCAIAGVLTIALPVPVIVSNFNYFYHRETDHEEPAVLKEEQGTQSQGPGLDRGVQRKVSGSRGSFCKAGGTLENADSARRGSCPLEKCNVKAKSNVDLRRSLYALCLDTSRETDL

Take `CC(C)/N=c1\cc2n(-c3ccc(Cl)cc3)c3ccccc3nc-2cc1Nc1ccc(Cl)cc1` [clofazimine, Clofazimine]: the “effect on murine mixed lymphocyte reaction” value in [1] is given as “failed to observe a dose-dependent inhibition; also recorded: Biphasic effects”. Moreover, the “block of current, mouse Kv3.1” value on mouse Kv3.1 (10 μM) is “less than 50%”. In addition, the IC50 on mouse Kv3.1 (inferred from block at 10 μM) was above 10000 nM; at Kv1.3 (current at +80 mV, inhibition at 120 s, read-out: IC50, Kv1.3 potassium current), 300 nM; at human Kv1.5 (inferred from block at 10 μM), above 10000 nM; on mouse Kv1.3 (+80 mV), 470 nM; in assay [4] it was 1100 ± 260 nM; in assay [7] (Homo sapiens, Jurkat, PMA/ionomycin, n=6), 2430 ± 1250 nM. On Kv1.3, the “Hill coefficient, Kv1.3 current” value is reported as 0.75. The results for the “cells with elongated calcium oscillation period” value in [2] and in assay [2] (listed as Clofazimine) were “Over 80%” and “more than 80%”, respectively. Besides, the “effect on calcium oscillation pattern” value in assay [2] (low concentration of thapsigargin) is “decreased the amplitude and increased the period”. In addition, the “block of current, human Kv1.5” value at human Kv1.5 (10 μM) was “less than 50%”. Also, the “Hill coefficient, mouse Kv1.3” value at mouse Kv1.3 is on record as 0.5. Also, the “patients able to decrease the amount of other medication” value in assay [3] is recorded as around 25%. In the assay on mouse primary T-cells, the “inhibition of IL-2 production in primary mouse T-cells” value is on record as “failed to observe a dose-dependent inhibition”. Also, the figures for the “effect on calcium-dependent NFAT-calcineurin interaction” value in [5] and in assay [5] (listed as Clofazimine) were “inhibited the calcium-dependent NFAT-calcineurin interaction in a dose-dependent manner” and “inhibits the calcium-dependent enhancement”, respectively. For the same compound, the “effect on dephosphorylation of endogenous NFATc2” value in [6] was “inhibited ionomycin-induced dephosphorylation of NFATc2 in a dose-dependent manner”; in assay [6] (listed as Clofazimine), “inhibits dephosphorylation”. Moreover, the “NF-κB luciferase reporter less sensitive than IL-2 promoter-driven reporter” value in assay [7] is “about 40 fold”.
